Test results as given in ChEMBL document CHEMBL1154043, “Synthesis and structure-activity relationship of a novel series of heterocyclic sulfonamide gamma-secretase inhibitors” (Bioorg Med Chem, 2009).
Activity calls are given as the source filed them. The rule behind the calls is not given here.

What was measured:
[1] = Inhibition of gamma-secretase-mediated cleavage of human APP expressed in CHO cells assessed as reduction in amyloid beta40 production after 24 hrs by double sandwich ELISA; assay type: cell-based
[2] = Inhibition of gamma-secretase assessed as increase in beta-C-terminal fragment level after 24 hrs by double sandwich ELISA
CHO = test: Inhibition of gamma-secretase-mediated cleavage of human APP expressed in CHO cells assessed as reduction in amyloid beta42 production after 24 hrs by double sandwich ELISA; assay type: cell-based
[3] = Inhibition of gamma-secretase assessed as effect on APP level after 24 hrs by double sandwich ELISA
[4] = target: Gamma-secretase (Homo sapiens) (UniProt Q96BI3+Q9NZ42+Q8WW43+P49768+Q92542+P49810); test: Displacement of [3H](S)-5-chloro-N-(3-ethyl-1-hydroxypentan-2-yl)thiophene-2-sulfonamide from gamma secretase in human SH-SY5Y cells after 1 hr; assay type: cell-based
[5] = Selectivity ratio of EC50 for gamma-secretase-mediated mouse notch cleavage to EC50 for gamma-secretase-mediated amyloid beta40 production
[6] = Inhibition of gamma-secretase-mediated mouse notch cleavage expressed in CHOK1 cells assessed as secreted alkaline phosphatase level after 48 hrs by chemiluminescence assay; assay type: cell-based; settings: CHO-K1, 48 h

Compound | EC50 [1] [µM] | Activity [2] | Activity [3] | Activity [4] | Selectivity ratio [5] | EC50 [6] [µM] | Activity (CHO)
CCC(CC)C(NS(=O)(=O)c1ccc(Br)cc1)c1ccnn1Cc1ccc(OC)cc1 (configuration not stated) | 2.27 | Active | Active |  |  |  | Active
COc1ccc(Cn2nccc2C(C)NS(=O)(=O)c2ccc(Cl)s2)cc1 (configuration not stated) | 1.2 | Active | Active |  |  |  | Active
CCC(CC)[C@@H](NS(=O)(=O)c1ccc(Cl)s1)c1ccnn1Cc1ccc(OC)cc1 | > 15 | Active | Active |  |  |  | Active
CCC(CC)C(NS(=O)(=O)c1ccc(Cl)s1)c1ccnn1-c1ccc(O)cc1 (configuration not stated) | 0.63 | Active | Active |  |  |  | Active
CCC(CC)C(NS(=O)(=O)c1ccc(Cl)s1)c1nccn1Cc1ccc(OC)cc1 (configuration not stated) | 50.6 | Active | Active |  |  |  | Active
Cc1ccc(-n2nccc2C(NS(=O)(=O)c2ccc(Cl)s2)C(C)C)cc1 (configuration not stated) | 0.42 | Active | Active |  |  |  | Active
CC(C)C(NS(=O)(=O)c1ccc(Cl)s1)c1ccnn1-c1ccccc1 (configuration not stated) | 1.12 | Active | Active |  |  |  | Active
CC(C)[C@@H](NS(=O)(=O)c1ccc(Cl)s1)c1ccnn1-c1ccc(F)cc1 | > 15 | Active | Active |  |  |  | Active
CCC(CC)C(NS(=O)(=O)c1ccc(Cl)cc1)c1ccnn1-c1ccccc1 (configuration not stated) | 23 | Active | Active |  |  |  | Active
CCCC(NS(=O)(=O)c1ccc(Cl)s1)c1ccnn1Cc1ccc(OC)cc1 (configuration not stated) | 0.93 | Active | Active |  |  |  | Active
CCC(CC)C(c1ccnn1-c1ccccc1)N(C)S(=O)(=O)c1ccc(Br)s1 (configuration not stated) | 65.1 | Active | Active |  |  |  | Active
COc1ccc(Cn2nccc2C(NS(=O)(=O)c2ccc(Cl)s2)C(C)C)cc1 (configuration not stated) | 0.41 | Active | Active |  |  |  | Active
CCC(CC)[C@H](NS(=O)(=O)c1ccc(Cl)s1)c1ccnn1-c1ccc(OC)cc1 | 0.99 | Active | Active |  | 4 | 3.97 | Active
C[C@H](NC(=O)Cc1cc(F)cc(F)c1)C(=O)N[C@H](C(=O)OC(C)(C)C)c1ccccc1 |  |  |  | Active |  |  | 
CCC(CC)C(NS(=O)(=O)c1ccc(Cl)s1)c1ccnn1Cc1ccc(OC)cc1 (configuration not stated) | 0.13 | Active | Active |  |  |  | Active
CCC(CC)C(NS(=O)(=O)c1ccc(Cl)s1)c1ncnn1Cc1ccc(C)cc1 (configuration not stated) | 0.88 | Active | Active |  |  |  | Active
CCC(CC)C(NS(=O)(=O)c1ccc(Cl)s1)c1ccn[nH]1 (configuration not stated) | 19.5 | Active | Active |  |  |  | Active
CCC(CC)C(NS(=O)(=O)c1ccc(Cl)c(Cl)c1)c1ccnn1-c1ccccc1 (configuration not stated) | 25.5 | Active | Active |  |  |  | Active
CC(C)C(NS(=O)(=O)c1ccc(Cl)s1)c1ccnn1-c1ccc(F)cc1 (configuration not stated) | 2.76 | Active | Active |  |  |  | Active
CCC(CC)C(NS(=O)(=O)c1ccc(Br)s1)c1ccnn1-c1ccccc1 (configuration not stated) | 1.53 | Active | Active |  |  |  | Active
CCC(CC)[C@H](NS(=O)(=O)c1ccc(Cl)s1)c1ccnn1Cc1ccc(OC)cc1 | 0.11 | Active | Active |  | 24 | 2.65 | Active
CCC(CC)C(NS(=O)(=O)c1ccc(Cl)s1)c1ncnn1Cc1ccc(OC(F)(F)F)cc1 (configuration not stated) | 0.99 | Active | Active |  |  |  | Active
CCC(CC)C(NS(=O)(=O)c1ccc(Cl)s1)c1ncnn1Cc1ccccc1 (configuration not stated) | 1.01 | Active | Active |  |  |  | Active
C[C@H](NC(=O)[C@@H](O)c1cc(F)cc(F)c1)C(=O)N[C@@H]1C(=O)N(C)c2ccccc2-c2ccccc21 |  |  |  | Active |  |  | 

Now from value to molecule, other results behind:

EC50 [1] [µM] | Activity [2] | Activity [3] | Activity [4] | Selectivity ratio [5] | EC50 [6] [µM] | Compound | Activity (CHO)
2.89 | Active | Active |  |  |  | Cc1ccc(Cn2ncnc2C(NS(=O)(=O)c2ccc(Cl)s2)C(C)C)cc1 (configuration not stated) | Active
 |  |  | Active |  |  | CC(C)[C@H](O)C(=O)N[C@@H](C)C(=O)N[C@@H]1C(=O)N(C)CCc2ccccc21 | 
13.3 | Active | Active |  |  |  | COc1ccc(Cn2cccc2C(NS(=O)(=O)c2ccc(Cl)s2)C(C)C)cc1 (configuration not stated) | Active
0.14 | Active | Active |  |  |  | CCC(CC)C(NS(=O)(=O)c1ccc(Cl)s1)c1ccnn1Cc1ccc(O)cc1 (configuration not stated) | Active
0.94 | Active | Active |  |  |  | CCC(CC)C(NS(=O)(=O)c1ccc(Cl)s1)c1ncnn1Cc1ccc(OC)cc1 (configuration not stated) | Active
19.4 | Active | Active |  |  |  | CCC(CC)C(NS(=O)(=O)c1ccc(Cl)s1)c1nccn1Cc1ccccc1 (configuration not stated) | Active
0.47 | Active | Active |  | 6.9 | 3.26 | CC(C)[C@H](NS(=O)(=O)c1ccc(Cl)s1)c1ccnn1-c1ccc(O)cc1 | Active
70.2 | Active | Active |  |  |  | CCC(CC)C(c1ccnn1-c1ccccc1)N(C)S(=O)(=O)c1ccc(Cl)s1 (configuration not stated) | Active
> 15 | Active | Active |  |  |  | Cc1ccc(-n2nccc2[C@H](NS(=O)(=O)c2ccc(Cl)s2)C(C)C)cc1 | Active
0.55 | Active | Active |  | 11 | 6.12 | COc1ccc(-n2nccc2[C@@H](NS(=O)(=O)c2ccc(Cl)s2)C(C)C)cc1 | Active
1.98 | Active | Active |  |  |  | CCC(CC)C(NS(=O)(=O)c1ccc(Cl)cc1)c1ccnn1Cc1ccc(OC)cc1 (configuration not stated) | Active
42.4 | Active | Active |  |  |  | CCC(CC)C(NC(=O)c1ccc(Cl)cc1)c1ccnn1Cc1ccc(OC)cc1 (configuration not stated) | Active
1.01 | Active | Active |  |  |  | CC(C)[C@H](NS(=O)(=O)c1ccc(Cl)s1)c1ccnn1-c1ccc(F)cc1 | Active
0.32 | Active | Active |  | 39 | 12.6 | Cc1ccc(-n2nccc2[C@@H](NS(=O)(=O)c2ccc(Cl)s2)C(C)C)cc1 | Active
1.62 | Active | Active |  |  |  | CCC(CC)C(NS(=O)(=O)c1ccc(Cl)s1)c1ccnn1-c1ccccc1 (configuration not stated) | Active
3.36 | Active | Active |  |  |  | CC(C)C(NS(=O)(=O)c1ccc(Cl)s1)c1ncnn1Cc1ccccc1 (configuration not stated) | Active
85.2 | Active | Active |  |  |  | CCC(CC)C(NS(=O)(=O)c1ccc(C#N)cc1)c1ccnn1-c1ccccc1 (configuration not stated) | Active
13.4 | Active | Active |  |  |  | CCC(CC)C(NS(=O)(=O)c1cc(Cl)c(Cl)s1)c1ccnn1-c1ccccc1 (configuration not stated) | Active
1 | Active | Active |  |  |  | CCCCn1nccc1C(NS(=O)(=O)c1ccc(Cl)s1)C(CC)CC (configuration not stated) | Active
8.5 | Active | Active |  |  |  | CCC(CC)[C@@H](NS(=O)(=O)c1ccc(Cl)s1)c1ccnn1Cc1ccc(O)cc1 | Active
2.19 | Active | Active |  |  |  | CCC(CC)C(NS(=O)(=O)c1ccc(Cl)s1)c1ccnn1-c1ccc(C(F)(F)F)cc1 (configuration not stated) | Active
1.68 | Active | Active |  |  |  | CCC(CC)C(NS(=O)(=O)c1ccc(Cl)s1)c1ccnn1S(=O)(=O)c1ccc(C)cc1 (configuration not stated) | Active
2.53 | Active | Active |  |  |  | Cc1cccc(-n2nccc2C(NS(=O)(=O)c2ccc(Cl)s2)C(C)C)c1 (configuration not stated) | Active
1.56 | Active | Active |  |  |  | CCC(CC)C(NS(=O)(=O)c1ccc(Cl)s1)c1ccnn1-c1ccc(OC)cc1 (configuration not stated) | Active
0.48 | Active | Active |  |  |  | CCC(CC)C(NS(=O)(=O)c1ccc(Cl)s1)c1ncnn1Cc1ccc(F)cc1 (configuration not stated) | Active
